According to the NIST ThermoML archive (doi:10.1016/j.jct.2019.06.007):
± gives the expanded uncertainty stated by the source.

Settings: Crystal; DTA

Normal melting temperature: 159.90 ± 1.1 °C
Structure (SMILES): Cn1c(=O)c2c(ncn2CC(O)CO)n(C)c1=O (stereo unspecified)
